Results published in patent publication US4721730A, “Adsorbent for β2 -microglobulin and immunoglobulin L-chain” (Kanegafuchi Kagaku Kogyo Kabushiki Kaisha, priority 1986, dated 1988).

Test system: β2-m and L-chain
Assay: adsorption ability of immobilized compounds / carriers for β2-m and L-chain
Assay type: binding
Conditions: compound immobilized onto a carrier; in words
Excerpt: In order to find out a compound which has an effect on adsorbing β2 -m and L-chain, compounds having various log P are immobilized onto a carrier.
As the result of an investigation using carriers having various molucular weights of the exclusion limit, it is shown that the preferable range of pore size indicated by molecular weight of the exclusion limit is from 1×10^4 to 6×10^5. […] Therefore, the molecular weight of the exclusion limit of the carrier empolyed in the present invention is preferably from 1×10^4 to 6×10^5,more preferably from 2×10^4 to 3×10^5.

CCCCCCCCN [n-octylamine]
adsorption ability of β2-m and L-chain: extraordinarily increased
